For the assay, the system named is L1210 leukemia ip in BDF1 mice, survival T/C. Briefly: NCI In Vivo Anticancer Drug Screen. Data for tumor model L1210 Leukemia (intraperitoneal) in B6D2F1 (BDF1) mice. The note with it: endpoint: mean survival time, higher = longer survival. A digest of the protocol:
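Antitumor effect is assessed in tumor-bearing animals. Survival in the compound arm is compared with a vehicle-dosed control arm and expressed as their quotient.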

[1] abbreviates: dose: 100.0 mg/kg/injection, schedule: Q04DX003 (ip), vehicle: Klucel (hydroxypropylcellulose) (HPC).
Where [2] appears, read: dose: 200.0 mg/kg/injection, schedule: Q04DX003 (ip), vehicle: Klucel (hydroxypropylcellulose) (HPC).
[3] abbreviates: dose: 400.0 mg/kg/injection, schedule: Q04DX003 (ip), vehicle: Klucel (hydroxypropylcellulose) (HPC).
The mark [4] stands for this setting: dose: 100.0 mg/kg/injection, schedule: Q01DX001 (ip), vehicle: saline.
The mark [5] stands for this setting: dose: 200.0 mg/kg/injection, schedule: Q01DX001 (ip), vehicle: saline.
Where [6] appears, read: dose: 400.0 mg/kg/injection, schedule: Q01DX001 (ip), vehicle: saline.
[7] abbreviates: dose: 100.0 mg/kg/injection, schedule: Q01DX009 (ip), vehicle: Klucel (hydroxypropylcellulose) (HPC).
The mark [8] stands for this setting: dose: 200.0 mg/kg/injection, schedule: Q01DX009 (ip), vehicle: Klucel (hydroxypropylcellulose) (HPC).
Setting [9] is: dose: 400.0 mg/kg/injection, schedule: Q01DX009 (ip), vehicle: Klucel (hydroxypropylcellulose) (HPC).

Where “and” joins values, the source holds several entries; their conditions need not be identical. Identical values can stand only once. Inconclusive results and toxic doses are left out.

In the case of `CCOC(=O)C1C2c3ccccc3C(C1C(=O)OCC)[n+]1ccccc12` (stereo not given), the T/C was 100 % of control (dose: 100.0 mg/kg/injection, schedule: Q04DX003 (ip), vehicle: saline); 97 % of control (dose: 200.0 mg/kg/injection, schedule: Q04DX003 (ip), vehicle: saline); 100 % of control (dose: 400.0 mg/kg/injection, schedule: Q04DX003 (ip), vehicle: saline).
As for `CC(C)C(C#N)(CCCCN1CCCCC1)c1cccc2ccccc12` (stereo not given), the T/C is, setting by setting: (dose: 100.0 mg/kg/injection, schedule: Q04DX003 (ip), vehicle: saline with Tween-80) 97 % of control; (dose: 200.0 mg/kg/injection, schedule: Q04DX003 (ip), vehicle: saline with Tween-80) 93 % of control.
On to `O=C1CCCCCCCCC1O` (stereo not given), for which the T/C is, setting by setting: (dose: 100.0 mg/kg/injection, schedule: Q01DX009 (ip), vehicle: saline with Tween-80) 120 % of control; (dose: 100.0 mg/kg/injection, schedule: Q01DX009 (ip), vehicle: saline) 333 % of control; under setting [1], 103 % of control; (dose: 200.0 mg/kg/injection, schedule: Q01DX009 (ip), vehicle: saline with Tween-80) 101 % of control; (dose: 200.0 mg/kg/injection, schedule: Q01DX009 (ip), vehicle: saline) 114 % of control; under setting [2], 115 % of control. In addition, the T/C was 97 % of control (dose: 400.0 mg/kg/injection, schedule: Q01DX009 (ip), vehicle: saline with Tween-80); 105 % of control (dose: 400.0 mg/kg/injection, schedule: Q01DX009 (ip), vehicle: saline); 108 % of control under setting [3].
Take `Cc1ccc(NC(=O)Nc2ccc(CNC(=O)COc3ccc(Cl)cc3C(=O)O)cc2)cc1S(=O)(=O)F`: the T/C is, setting by setting: under setting [4], 100 % of control; under setting [5], 94 % of control; under setting [6], 94 % of control.
`O=C(CCCc1ccc(N(CCCl)CCCl)cc1)Nc1ncccn1`: the T/C by setting is: (dose: 1.0 mg/kg/injection, schedule: Q01DX015 (ip), vehicle: carboxymethylcellulose (CMC)) 113 % of control; (dose: 3.0 mg/kg/injection, schedule: Q01DX015 (ip), vehicle: carboxymethylcellulose (CMC)) 118 % of control; (dose: 6.0 mg/kg/injection, schedule: Q01DX015 (ip), vehicle: carboxymethylcellulose (CMC)) 118 % of control; (dose: 6.25 mg/kg/injection, schedule: Q01DX001 (ip), vehicle: saline) 110 % of control; (dose: 12.0 mg/kg/injection, schedule: Q01DX015 (ip), vehicle: carboxymethylcellulose (CMC)) 123 % of control; (dose: 12.5 mg/kg/injection, schedule: Q01DX001 (ip), vehicle: saline) 110 % of control. Further, under “dose: 25.0 mg/kg/injection, schedule: Q01DX001 (ip), vehicle: saline”, the T/C was 121 % of control.
On to `CC(C)(C)CC(C)(C)c1ccc(OCCOc2ccc(C(=O)O)cc2)cc1`, for which the T/C runs as follows: under setting [7], 88 % of control; under setting [8], 92 % of control; under setting [9], 92 % of control.
Regarding `COC(=O)c1ccc(=O)c2nc3/c(=C/O)c(O)cc(=O)c3[nH]c12`, the T/C runs as follows: (dose: 23.0 micrograms/kg/injection, schedule: Q01DX001 (ip), vehicle: acetone) 90 % of control; (dose: 23.0 micrograms/kg/injection, schedule: Q01DX009 (ip), vehicle: saline) 100 % of control; (dose: 23.0 micrograms/kg/injection, schedule: Q04DX003 (ip), vehicle: saline) 110 % of control; (dose: 47.0 micrograms/kg/injection, schedule: Q01DX001 (ip), vehicle: acetone) 93 % of control; (dose: 47.0 micrograms/kg/injection, schedule: Q01DX009 (ip), vehicle: saline) 113 % of control; (dose: 47.0 micrograms/kg/injection, schedule: Q04DX003 (ip), vehicle: saline) 97 % of control. The T/C is 92 % of control (dose: 95.0 micrograms/kg/injection, schedule: Q01DX001 (ip), vehicle: acetone) and 101 % of control (dose: 95.0 micrograms/kg/injection, schedule: Q04DX003 (ip), vehicle: saline).
Regarding `CCOC(=O)NC(CCN(C)C)(c1cccc2ccccc12)C(C)C` (stereo not given), the T/C is 100 % of control (dose: 50.0 mg/kg/injection, schedule: Q04DX002 (ip), vehicle: Klucel (hydroxypropylcellulose) (HPC)); 101 % of control under setting [7]; 100 % of control (dose: 100.0 mg/kg/injection, schedule: Q04DX002 (ip), vehicle: Klucel (hydroxypropylcellulose) (HPC)).
As to `Cc1cc(OC(=O)Nc2cc(C(F)(F)F)ccc2Cl)cc(C)c1Cl`, the T/C reads like this: under setting [7], 91 % of control; under setting [8], 104 % of control; under setting [9], 93 % of control.
As to `CC(=O)[O][Hg][CH2]C1(C)COC(C)([CH2][Hg][O]C(C)=O)CO1` (stereo not given), the T/C (dose: 10.0 mg/kg/injection, schedule: Q01DX001 (ip), vehicle: carboxymethylcellulose (CMC)) is 108 % of control; the T/C (dose: 20.0 mg/kg/injection, schedule: Q01DX001 (ip), vehicle: carboxymethylcellulose (CMC)) was 97 % of control; the T/C (dose: 80.0 mg/kg/injection, schedule: Q01DX001 (ip), vehicle: carboxymethylcellulose (CMC)) was 97 % of control.
For `CCCCCCCCCCCCCCCCCC(=O)N/N=C/C=C/c1ccccc1`, the T/C was 101 % of control (dose: 50.0 mg/kg/injection, schedule: Q01DX009 (ip), vehicle: Klucel (hydroxypropylcellulose) (HPC)); 98 % of control under setting [7]; 101 % of control and 91 % of control under setting [8]; 100 % of control under setting [9].
As to `O=[N+]([O-])c1ccc2nc(NCCCO)c3ccccc3c2c1`, the T/C under setting [1] is 120 % of control, the T/C under setting [2] was 124 % of control and the T/C under setting [3] was 96 % of control.
As for `Cc1nc2ccccc2c(Oc2ccccc2)c1-c1ccccc1`, the T/C is, setting by setting: (dose: 50.0 mg/kg/injection, schedule: Q01DX001 (ip), vehicle: saline) 102 % of control; under setting [4], 102 % of control; under setting [5], 104 % of control; under setting [6], 96 % of control.
With `Cc1n(Cc2ccccc2)c2c([n+]1C)C(=O)c1ccccc1C2=O`, the T/C is 102 % of control (dose: 0.5 mg/kg/injection, schedule: Q01DX001 (ip), vehicle: saline); 102 % of control (dose: 1.0 mg/kg/injection, schedule: Q01DX001 (ip), vehicle: saline); 100 % of control (dose: 1.0 mg/kg/injection, schedule: Q04DX003 (ip), vehicle: Klucel (hydroxypropylcellulose) (HPC)); 106 % of control (dose: 2.0 mg/kg/injection, schedule: Q01DX001 (ip), vehicle: saline); 91 % of control (dose: 2.0 mg/kg/injection, schedule: Q04DX003 (ip), vehicle: Klucel (hydroxypropylcellulose) (HPC)); 108 % of control (dose: 4.0 mg/kg/injection, schedule: Q01DX001 (ip), vehicle: saline). Also, the T/C is, setting by setting: (dose: 4.0 mg/kg/injection, schedule: Q04DX003 (ip), vehicle: Klucel (hydroxypropylcellulose) (HPC)) 96 % of control; (dose: 125.0 micrograms/kg/injection, schedule: Q01DX009 (ip), vehicle: Klucel (hydroxypropylcellulose) (HPC)) 97 % of control; (dose: 250.0 micrograms/kg/injection, schedule: Q01DX009 (ip), vehicle: Klucel (hydroxypropylcellulose) (HPC)) 97 % of control; (dose: 500.0 micrograms/kg/injection, schedule: Q01DX009 (ip), vehicle: Klucel (hydroxypropylcellulose) (HPC)) 90 % of control; (dose: 1000.0 micrograms/kg/injection, schedule: Q01DX009 (ip), vehicle: Klucel (hydroxypropylcellulose) (HPC)) 101 % of control; (dose: 2000.0 micrograms/kg/injection, schedule: Q01DX009 (ip), vehicle: Klucel (hydroxypropylcellulose) (HPC)) 95 % of control.
Regarding `O=C1NC(=S)SC1N=Nc1ccc(S(=O)(=O)Nc2ncccn2)cc1` (stereo not given), the T/C (dose: 75.0 mg/kg/injection, schedule: Q01DX001 (ip), vehicle: saline) is 104 % of control; the T/C (dose: 150.0 mg/kg/injection, schedule: Q01DX001 (ip), vehicle: saline) was 102 % of control; the T/C (dose: 300.0 mg/kg/injection, schedule: Q01DX001 (ip), vehicle: saline) was 100 % of control.

The values above are taken from PubChem BioAssay AID248 (DTP/NCI, 2004).
